Legend:
[1] = molecular target: T1, flavonoid 7-O-glucuronosyltransferase VpF7GAT (Veronica persica, UniProt C0STS8); details: glycosyl acceptor substrate apigenin; activity of UDP-glucuronic acid made 100%
Experimental: (§1) Standard reaction conditions are as follows. […] The mixture was reacted at 30° C. for 1 minute. The reaction was then terminated by adding 50 μl of CH3CN containing 0.5% TFA. The product was analyzed by reversed phase HPLC (LC-2010 System, Shimadzu Corporation).
(§2) The conditions for HPLC are as follows. Develosil C30-UG-5 column (4.6 mm×150 mm, Nomura Chemical) was used with a column oven at 40° C., and the moving phase A (0.1% TFA/H2O) and the moving phase B (0.1% TFA/90% CH3CN) were used. The conditions for elution include a linear density gradient (B20%→B70%) for 15 minutes, then retention with B70% for further 1 minute and again reverting to B20%, followed by equilibration for 20 minutes. HPLC was performed at the flow of 1 ml/min. Detection was performed at 280 and 360 nm using a SPD-M10A Photodiode Array Detector (Shimadzu Corporation).

[2] = molecular target: T1, flavonoid 7-O-glucuronosyltransferase VpF7GAT; assay: Selectivity of VpF7GAT to glycosyl acceptor substrates (glycosyl donor: UDP-glucuronic acid); assay type: biochemical; details: for activity of VpF7GAT with the glycosyl acceptor substrate (in words, summary in the description): compared to other glycosyl acceptor substrates; for relative activity of glycosyl acceptor substrate / glucuronosyltransferase activity (in words): glycosyl donor UDP-glucuronic acid; for relative activity of glycosyl acceptor substrate: activity to apigenin made 100%, FIG. 3; for glucuronosyltransferase activity (in words): reaction conditions for this enzyme
Experimental: as §1, §2

T1 sequence (C0STS8 entry or part of it): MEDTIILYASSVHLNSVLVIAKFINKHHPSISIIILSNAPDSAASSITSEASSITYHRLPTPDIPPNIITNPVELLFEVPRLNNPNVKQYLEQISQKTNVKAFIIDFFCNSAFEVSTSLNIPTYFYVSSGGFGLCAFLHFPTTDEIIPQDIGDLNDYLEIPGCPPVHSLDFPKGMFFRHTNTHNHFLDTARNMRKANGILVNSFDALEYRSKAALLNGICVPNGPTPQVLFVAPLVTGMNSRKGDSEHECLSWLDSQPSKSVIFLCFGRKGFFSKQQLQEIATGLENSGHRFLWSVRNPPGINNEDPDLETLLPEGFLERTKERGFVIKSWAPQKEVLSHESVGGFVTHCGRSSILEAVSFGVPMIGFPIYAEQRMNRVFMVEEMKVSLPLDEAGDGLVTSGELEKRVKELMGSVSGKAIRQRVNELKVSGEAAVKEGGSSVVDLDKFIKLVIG

relative activity of UDP glycosyl donor [1] [%]	glucuronosyltransferase activity (in words) [2]	Compound	activity of VpF7GAT with the glycosyl acceptor substrate (in words, summary in the description) [2]	relative activity of glycosyl acceptor substrate [2] [%]
100		O=C(O)[C@H]1O[C@H](OP(=O)(O)OP(=O)(O)OC[C@H]2O[C@@H](n3ccc(=O)[nH]c3=O)[C@H](O)[C@@H]2O)[C@H](O)[C@@H](O)[C@@H]1O [UDP-glucuronic acid]		
		O=c1cc(-c2ccc(O)cc2)oc2cc(O)cc(O)c12 [apigenin]	strong	100
		O=c1cc(-c2ccccc2)oc2cc(O)c(O)c(O)c12 [baicalein]	shows an activity	13.1
		COc1cc(-c2cc(=O)c3c(O)cc(O)cc3o2)ccc1O [chrysoeriol]	strong	34.0
		COc1ccc(-c2cc(=O)c3c(O)cc(O)cc3o2)cc1O [diosmetin]	strong	12.9
	not observed	O=c1ccc2cc(O)c(O)cc2o1 [esculetin]		
	not observed	O=c1c(-c2ccc(O)cc2)coc2cc(O)cc(O)c12 [genistein]		
	not observed	O=c1cc(-c2ccc(O)cc2)oc2cc(O)c([C@@H]3O[C@H](CO)[C@@H](O)[C@H](O)[C@H]3O)c(O)c12 [isovitexin]		
		O=c1c(O)c(-c2ccc(O)cc2)oc2cc(O)cc(O)c12 [kaempferol]	strong	13.3
		O=C1C[C@@H](c2ccc(O)cc2)Oc2cc(O)cc(O)c21 [naringenin]	strong	18.0
		O=c1c(O)c(-c2ccc(O)c(O)c2)oc2cc(O)cc(O)c12 [quercetin]	shows an activity	1.0
		O=c1cc(-c2ccc(O)cc2)oc2cc(O)c(O)c(O)c12 [scutellarein]		88.3
	not observed	Oc1cc2c(cc1[C@H]1OC[C@H]3[C@@H]1CO[C@@H]3c1ccc3c(c1)OCO3)OCO2 [sesaminol]		

Compound	relative activity of UDP glycosyl donor [1] [%]	glucuronosyltransferase activity (in words) [2]	activity of VpF7GAT with the glycosyl acceptor substrate (in words, summary in the description) [2]	relative activity of glycosyl acceptor substrate [2] [%]
O=c1cc(-c2ccc(O)c(O)c2)oc2c([C@@H]3O[C@H](CO)[C@@H](O)[C@H](O)[C@H]3O)c(O)cc(O)c12 [orientin]		not observed		
Oc1ccc(C=Cc2cc(O)cc(O)c2)cc1 [resveratrol]		not observed		
